# Source: patent EP4268823A1, “COMPOUND FOR TREATING NEUROINFLAMMATION” (Universitätsklinikum Hamburg-Eppendorf, priority 2022, dated 2023)
# Biological target: T1, G9a (Mus musculus, UniProt Q9Z148)
# T1 construct: UNC0642 pre-treated primary neuronal cultures compared to respective controls; endogenous in cells; host or cells: primary mouse cortical neuronal cultures (C57BL/6J embryos)
# T1 sequence (Q9Z148 1-1263): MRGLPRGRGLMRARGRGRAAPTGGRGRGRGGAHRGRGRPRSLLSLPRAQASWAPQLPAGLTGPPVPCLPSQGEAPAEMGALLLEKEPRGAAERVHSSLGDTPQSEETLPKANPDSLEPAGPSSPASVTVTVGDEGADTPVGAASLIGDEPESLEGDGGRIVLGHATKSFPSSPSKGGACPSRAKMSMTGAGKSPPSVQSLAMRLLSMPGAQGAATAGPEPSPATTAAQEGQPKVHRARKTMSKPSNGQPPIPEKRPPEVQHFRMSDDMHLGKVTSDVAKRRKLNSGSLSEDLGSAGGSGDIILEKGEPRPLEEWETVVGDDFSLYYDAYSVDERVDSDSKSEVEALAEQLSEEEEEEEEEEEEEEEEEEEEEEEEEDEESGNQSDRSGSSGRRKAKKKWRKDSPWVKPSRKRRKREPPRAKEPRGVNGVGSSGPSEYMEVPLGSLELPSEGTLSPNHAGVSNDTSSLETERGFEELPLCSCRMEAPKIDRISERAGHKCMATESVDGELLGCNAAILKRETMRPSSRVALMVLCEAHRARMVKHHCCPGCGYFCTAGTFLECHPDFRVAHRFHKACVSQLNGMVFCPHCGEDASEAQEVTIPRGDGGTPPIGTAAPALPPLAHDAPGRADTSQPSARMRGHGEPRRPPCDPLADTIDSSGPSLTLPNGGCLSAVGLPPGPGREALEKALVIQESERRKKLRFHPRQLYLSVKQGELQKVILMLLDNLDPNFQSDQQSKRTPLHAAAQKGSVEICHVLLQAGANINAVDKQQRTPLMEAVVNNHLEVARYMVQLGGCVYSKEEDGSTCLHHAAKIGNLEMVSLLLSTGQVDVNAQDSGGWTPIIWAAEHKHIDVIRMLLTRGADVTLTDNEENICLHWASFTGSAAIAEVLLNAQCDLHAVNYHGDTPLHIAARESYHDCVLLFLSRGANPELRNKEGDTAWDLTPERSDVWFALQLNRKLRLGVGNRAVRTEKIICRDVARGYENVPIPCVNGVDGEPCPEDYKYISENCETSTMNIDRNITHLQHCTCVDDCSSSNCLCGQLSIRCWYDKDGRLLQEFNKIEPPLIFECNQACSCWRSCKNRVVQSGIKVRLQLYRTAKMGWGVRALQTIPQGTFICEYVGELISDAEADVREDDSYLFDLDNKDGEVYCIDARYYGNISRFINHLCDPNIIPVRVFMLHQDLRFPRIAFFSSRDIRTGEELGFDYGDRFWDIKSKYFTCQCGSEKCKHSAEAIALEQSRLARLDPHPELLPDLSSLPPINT
# Assay: H3K9me2 / G9a immunofluorescence staining in primary neuronal cultures
# Format: cell-based
# Procedure: For primary cortical cultures pregnant C57BL/6J, or G9afl/fl;Snap25-Cre mice were euthanized. To ensure comparability between genotypes, only embryos from heterozygous breeding's were used. Brainstem tissue of each embryo for genotyping was reserved and cortices were isolated, dissociated and cells were plated at a density of 1 × 10^5 cells per 1 cm^2 on poly-D-lysine-coated wells (5 µM Sigma-Aldrich, cat. no. A-003-M). If not stated otherwise, cells were maintained in neurobasal plus medium (supplemented with B27 plus, penicillin, streptomycin and L-glutamine; Gibco, cat. no. A3582901) at 37°C, 5% CO^2 and a relative humidity of 98%, and treated with 1 µM cytarabine (Sigma-Aldrich, cat. no. BP383) at 1 day in vitro (div) to inhibit glial cell proliferation. If no cytarabine was applied cells were maintained in PNBM medium (supplemented with neural cell survival factor, gentamycin and L-glutamine; Lonza). Throughout, cultures after 14-23 div were used for experiments. G9a inhibitor UNC0642 was used in a concentration of 1 µM and cultures were pre-treated 24 hours before further experimental procedures.
# Immunocytochemistry was performed as described previously (15). HiPSC-neurons and mouse neurons were cultivated on 12 mm diameter cover slips or on 96-well plates suited for confocal microscopy, fixed with 4% paraformaldehyde (PFA), incubated in 10% normal donkey's serum (NDS) containing 0.25% Triton X-100, and subsequently immunolabeling was performed. Immunostainings were analyzed with a Zeiss LSM 700 confocal microscope.
# [1] = primary neuronal cultures, 1 µM UNC0642 pre-treated 24 hours, vs. DMSO
compound,measurement,setting,value
"COc1cc2c(NC3CCN(C(C)C)CC3)nc(N3CCC(F)(F)CC3)nc2cc1OCCCN1CCCC1 [UNC0642, 2-(4,4-difluoropiperidin-1-yl)-6-methoxy-N-[1-(propan-2-yl)piperidin-4-yl]-7-[3-(pyrrolidin-1-yl)propoxy]quinazolin-4-amine]",upregulation of H3K9me2 in response to ferroptosis induction,"erastin or RSL3, with UNC0642",effectively prevented
same,upregulation of H3K9me2 by hydrogen peroxide treatment,"hydrogen peroxide stimulation, UNC0642 treatment",still able to overcome this effect
same,G9a protein level,[1],did not change
same,reduction of H3K9me2 signal,[1],45%
